Measured values from paper PMC4598118 (PLoS ONE, 2015).
Several values for one entry are separate records, joined by “and”; a condition that tells them apart may be missing. Equal entries are not always repeated. Where two headings read alike, the source gives them in different places. Marks after values point to notes of the source that are not given here.

How the values were obtained:
[1] = biological target: T1, Mus musculus AChE (mAChE) (Mus musculus, UniProt P21836); assay type: biochemical
[2] = biological target: T2, Anopheles gambiae AChE1-G119S (Anopheles gambiae, UniProt Q869C3, G280S); settings: cited from earlier work
[3] = biological target: T3, Homo sapiens AChE (hAChE) (Homo sapiens, UniProt P22303); assay type: biochemical
[4] = biological target: Aedes aegypti AChE1 (AaAChE1) (Aedes aegypti, UniProt Q6A2E2); assay type: biochemical
[5] = biological target: T2, Anopheles gambiae AChE1-G119S; assay type: biochemical
[6] = biological target: T1, Mus musculus AChE (mAChE); settings: cited from earlier work
[7] = biological target: Anopheles gambiae AChE1 (AgAChE1) (Anopheles gambiae, UniProt Q869C3); assay type: biochemical
[8] = biological target: T3, Homo sapiens AChE (hAChE); settings: cited from earlier work
AaAChE1 [9] = biological target: T4, AaAChE1 (Aedes aegypti, UniProt Q6A2E2); experiment: biochemical
mAChE [10] = biological target: T5, mAChE (Mus musculus, UniProt P21836); settings: read-out: IC 50-values of reversible inhibitors; cited from earlier work
hAChE [11] = biological target: T6, hAChE (Homo sapiens, UniProt P22303); settings: read-out: IC 50-values of reversible inhibitors; cited from earlier work
mAChE [12] = biological target: T5, mAChE; assay type: biochemical
[13] = tested on: AChE1 vs vertebrate AChEs; assay type: biochemical
AaAChE1 [14] = biological target: T4, AaAChE1; assay type: biochemical
AgAChE1 = AgAChE1 (Anopheles gambiae, UniProt Q869C3); assay type: biochemical
AgAChE1-G119S [15] = biological target: T7, AgAChE1-G119S (Anopheles gambiae, UniProt Q869C3, G280S); assay type: biochemical
hAChE [16] = biological target: T6, hAChE; assay type: biochemical
mAChE [17] = biological target: T5, mAChE; experiment: biochemical; settings: IC 50-values of reversible inhibitors
AgAChE1-G119S [18] = biological target: T7, AgAChE1-G119S; settings: cited from earlier work

CC(=O)SCC[N+](C)(C)C [ATChI, acetylthiocholine iodide]
Km [1]: 84 µM | Vmax [1]: 725 (694–756) mA/min | Vmax in percent of Vmax(ATChI) [1]: 100^a percent of Vmax(ATChI) | Kcat [2]: 4^b s^-1 | Km [3]: 146 µM | Vmax [3]: 821 (782–860) mA/min | Vmax in percent of Vmax(ATChI) [3]: 100^a percent of Vmax(ATChI) | Km [4]: 25 µM | Vmax [4]: 406 (389–422) mA/min | Vmax in percent of Vmax(ATChI) [4]: 100^a percent of Vmax(ATChI) | Vmax [5]: 318 (310–326) mA/min | Vmax in percent of Vmax(ATChI) [5]: 100^a percent of Vmax(ATChI) | Kcat [6]: 2333^c s^-1 | Km [7]: 27 µM | Vmax [7]: 528 (505–552) mA/min | Vmax in percent of Vmax(ATChI) [7]: 100^a percent of Vmax(ATChI) | Kcat [8]: 6167^d s^-1

CCCC(=O)SCC[N+](C)(C)C [BTChI, butyrylthiocholine iodide]
Km [4]: 45 µM | Vmax [4]: 38 (36–40) mA/min | Vmax [5]: 34 (24–45) mA/min | Km [7]: 36 µM | Vmax [7]: 58 (55–61) mA/min

CCN1CCC[C@@H]1CNC(=O)c1cc([N+](=O)[O-])c(N(C)C)cc1OC [C5685R]
IC50 (AaAChE1 [9]): > 30 µM | IC50 (mAChE [10]): 0.7 µM | IC50 (hAChE [11]): 1.3 µM

CCN1CCC[C@H]1CNC(=O)c1cc([N+](=O)[O-])c(N(C)C)cc1OC [C5685S]
IC50 (mAChE [10]): 0.7 µM | IC50 (hAChE [11]): 1.4 µM

CNC(=O)Oc1ccc2c(c1)[C@]1(C)CCN(C)[C@@H]1N2C [Eserine, eserine]
ki-values of covalent inhibitors (mAChE [12]): 1.36 (1.15–1.56) μM^-1 min^-1 and 1,36 μM^-1 min^-1 | fold more potent on AChE1 than on vertebrate AChEs (k i) [13]: approximately 10 fold | ki-values of covalent inhibitors (AaAChE1 [14]): 24.8 (18.1–31.5) μM^-1 min^-1 and 24,8 μM^-1 min^-1 | ki-values of covalent inhibitors (AgAChE1): 27.3 (23.8–30.8) μM^-1 min^-1 and 27,26 μM^-1 min^-1 | ki-values of covalent inhibitors (AgAChE1-G119S [15]): 1.18 (0.63–1.72) μM^-1 min^-1 and 1,18 μM^-1 min^-1 | ki-values of covalent inhibitors (hAChE [16]): 2.66 (2.28–3.05) μM^-1 min^-1 and 2,66 μM^-1 min^-1

CCN(CC)C(C)CN1c2ccccc2Sc2ccccc21 (centres unmarked) [Ethopropazine, ethopropazine]
IC50 (mAChE [17]): ~1000 µM

CCC(=O)SCC[N+](C)(C)C [PTChI, propionylthiocholine iodide]
Km [1]: 59 µM | Vmax [1]: 367 (354–380) mA/min | Vmax in percent of Vmax(ATChI) [1]: 50,6^a percent of Vmax(ATChI) | Km [3]: 150 µM | Vmax [3]: 429 (415–442) mA/min | Vmax in percent of Vmax(ATChI) [3]: 52,3^a percent of Vmax(ATChI) | Km [4]: 20 µM | Vmax [4]: 266 (258–275) mA/min | Vmax in percent of Vmax(ATChI) [4]: 65,5^a percent of Vmax(ATChI) | Vmax [5]: 105 (87–123) mA/min | Km [7]: 25 µM | Vmax [7]: 407 (393–421) mA/min | Vmax in percent of Vmax(ATChI) [7]: 77,1^a percent of Vmax(ATChI)

CNC(=O)Oc1ccccc1OC(C)C [Propoxur, propoxur]
fold lower inhibition constants than eserine [13]: 15–30 fold | fold more potent on AChE1 than on vertebrate AChEs (k i) [13]: approximately 10 fold | ki-values of covalent inhibitors (AaAChE1 [14]): 1.20 (1.05–1.35) μM^-1 min^-1 and 1,2 μM^-1 min^-1 | ki-values of covalent inhibitors (AgAChE1): 1.11 (1.02–1.21) μM^-1 min^-1 and 1,11 μM^-1 min^-1 | ki (AgAChE1-G119S [18]): 0,00015^b µM^-1 min^-1 | inhibition of the G119S mutant (AgAChE1-G119S [15]): only marginal inhibition
